How the values were obtained:
B. subtilis cells = assay: Lactate dehydrogenase release (resofurin fluorescence), MAcBCE/MAkBCE and controls; assay type: cell-based, Bacillus subtilis; details: 37° C, potassium lactate/NAD+ solution
Method: A 2 mL liquid culture of transformed B. subtilis cells was grown at 37° C. in LB media supplemented with […] kanamycin, until OD600=0.6. Cells were collected by centrifugation at 2000 rpm over 3 min. The bacterial pellet was washed twice in lactate/NAD^+ solution (95 mM potassium lactate, 10 mM nicotinamide adenine dinucleotide (NAD^+), 10 mM HEPES, pH adjusted to 7.4 with KOH). After the last centrifugation step, the bacteria were resuspended until OD600=1.0 in the lactate/NAD^+ solution, then diluted 100× in the same solution. The working fluorophore solution was a 1 mM of resazurin sodium salt (Alfa Cesar) in water. The experiment was started with 3 mL of lactate/NAD^+ solution in a quartz cuvette, then 3.1 μL of resazurin solution was added (timepoint t1, 50 sec) for a 1 μM final concentration, followed by the addition of 100 μL of the diluted B. subtilis suspension (timepoint t2, 100 sec). After 150 sec (timepoint t3, 250 sec), 10 μL of diaphorase (Worthinton Biochemical Corporation) 10 mg/mL solution was added. The final step involved the addition of 0.62 μL of a 10 mM stock solution of dialkylated diaza lariat ether (LEC10) in TFE (timepoint t4, 400 sec), for a final LEC10 concentration of 2 μM; or 3.1 μL of a 2 mM stock solution of valinomycin in DMSO, for a final valinomycin concentration of 2 μM; or 3.1 μL of a 20 mg/mL stock solution of lysozyme in lactate/NAD^+ solution, for a final lysozyme concentration of 20 μg/mL; or 3.1 μL of 10 mM stock solution of each MAcBCE or MAkBCE compounds in TFE, for final concentrations of 10 μM. Fluorescence intensity was recorded each second using a Horiba Fluoromax 4 spectrometer (λexcitation=550 nm; λemission=583 nm). […] To normalize, the fluorescence intensity was divided by the fluorescence level just before timepoint t4. […]
Experiments were repeated at least three times per condition. To normalize, the fluorescence intensity was divided by the fluorescence level just before timepoint t4.

B. subtilis membrane = assay: DiSC3(5) depolarization assay, lariat ethers; assay type: cell-based, Bacillus subtilis; details: 2 μM compound; 60 mM KCl, NaCl or NMDG-Cl; NMDG-MeSO3 solution; 25° C
Method: Dialkylated lariat ethers LEC6-LEC14 were then tested for their ability to depolarize a B. subtilis membrane using the fluorescent dye 3,3-dipropylthiadicarbocyanine (DiSC3(5)), which undergoes membrane voltage-dependent partitioning between the intracellular and the extracellular medium. FIGS. 23-31 show the time course of the DiSC3(5) fluorescence due to the activity of dialkylated lariat ethers with alkyl chains 6 to 14 carbons in length. The experiment was performed in a NMDG-MeSO3 solution (100 mM NMDG, 10 mM HEPES, pH adjusted to 7.4 with methanesulfonic acid). The events are: t1, addition of dye; t2, addition of B. subtilis; t3, addition of a 2 M KCl or a 2 M NMDG-Cl solution up to a final concentration of 60 mM; t4, addition of dialkylated lariat ether up to 2 μM. Control experiments were performed that were similar to the two previously described experiments, with the exception that additional NMDG-MeSO3 solution without cells was added at timepoint t2. The experiments were normalized relative to the final fluorescence intensity in the control experiments, as described below.
To conduct the experiments shown in FIGS. 23-31, a 2-mL liquid culture of B. subtilis cells was grown at 37° C. in LB media until OD600=0.600, and then collected by centrifugation at 2000 rpm during 3 min. The bacteria were washed once in NMDG-MeSO3 solution (100 mM NMDG, 10 mM HEPES, pH adjusted to 7.4 with methanesulfonic acid) or dextrose solution (200 mM dextrose, 10 mM Tris, pH adjusted to 7.4 with HCl) depending on the experiment. The centrifugation step was repeated and the bacteria were resuspended until OD600=1.0 in the same solution. The working dye solution was a 200 μM solution of DiSC3(5) (3,3′-dipropylthiadicarbocyanine iodide; Tokyo Chemical Industry) in DMSO. […] After 150 sec (timepoint t3, 250 sec) the fluorescence stabilized to a minimum intensity and 100 μL of 2M NMDG-Cl, 2M NaCl or 2 M KCl solution was added to reach a about 60 mM final concentration of the salt. […] Fluorescence intensity was recorded each second using a Horiba Fluoromax 4 spectrometer (excitation wavelength=640 nm; emission wavelength=670 nm). […] To normalize the fluorescence, experiments in the same conditions but without adding bacteria were performed, normalization was done by dividing the fluorescence by the final fluorescence level of these experiments.
Cell hyperpolarization (more negatively charged inside the cell) results in an uptake of the dye, while cell membrane depolarization (more positively charged inside the cell) results in a release of the dye. The accumulation of the dye in the interior of the cell can be detected by a decrease in fluorescence due to self-quenching, which enables the dye to be utilized as an indirect reporter of changes in cell membrane voltage. […]

Compound | resofurin fluorescence (LDH release) (B. subtilis cells; 2 μM) | relative DiSC3(5) release in the presence of different cations (B. subtilis membrane) | resofurin fluorescence (LDH release) (B. subtilis cells; 20 μg/mL)
CC(C)[C@@H]1NC(=O)[C@H](C)OC(=O)[C@@H](C(C)C)NC(=O)[C@@H](C(C)C)OC(=O)[C@H](C(C)C)NC(=O)[C@H](C)OC(=O)[C@@H](C(C)C)NC(=O)[C@@H](C(C)C)OC(=O)[C@H](C(C)C)NC(=O)[C@H](C)OC(=O)[C@@H](C(C)C)NC(=O)[C@@H](C(C)C)OC1=O [valinomycin] | no effect | only when K^+ was added | 
lysozyme |  |  | increase in the resofurin fluorescence levels
